Measured values taken from patent US9365613B2, “Acylated 4-amidino- and -4-guanidinobenzylamines for inhibition of plasma kallikrein” (The Medicines Company (Leipzig) GmbH, priority 2003, dated 2016).

Legend:
Assay type in all cases: biochemical
human factor XIIa = molecular target: T1, human factor XIIa (Homo sapiens, UniProt P00748); assay: Inhibitory constants for factor XIIa (substrate H-D-HHT-Gly-Arg-pNA, Chromozym XII); details: read-out: Ki F XIIa
T1 construct: purchased Haemochrom Diagnostica GmbH, Essen, Germany
T1 sequence (P00748 373-615 limits assumed, other chains not shown): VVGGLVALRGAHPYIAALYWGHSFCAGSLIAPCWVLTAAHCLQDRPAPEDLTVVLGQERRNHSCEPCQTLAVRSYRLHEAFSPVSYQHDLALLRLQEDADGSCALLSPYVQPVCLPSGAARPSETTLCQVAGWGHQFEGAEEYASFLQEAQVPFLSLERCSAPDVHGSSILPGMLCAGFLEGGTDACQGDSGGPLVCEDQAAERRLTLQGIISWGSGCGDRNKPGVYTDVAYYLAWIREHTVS
Procedure: (§1) The inhibitory effect for the individual enzymes was determined in analogy with a method which has already been described (Stürzebecher et al., J. Med. Chem. 40, 3091-3099, 1997).
(§2) After 3 min, the reaction was terminated by adding 25 μl of acetic acid (50%) and the absorption at […] was determined using a Microplate Reader (Labsystems iEMS Reader MF). The Ki values were determined, in accordance with Dixon (Biochem. J. 55, 170-171, 1953), by means of linear regression and using a computer program. The Ki values are the mean of at least three determinations.
(§3) The inhibition of factor XIa and factor XIIa was determined in an analogous manner. When determining the inhibitory constants for human factor XIa (Haemochrom Diagnostica GmbH, Essen, Germany), H-D-Lys(Z)-Pro-Arg-pNA (Chromozym PCa, Roche Diagnostics GmbH, Mannheim, Germany) was used as the substrate.
H-D-HHT-Gly-Arg-pNA (Chromozym XII, Roche Diagnostics GmbH, Mannheim, Germany) was used as the substrate for measuring the inhibitory constants of human factor XIIa (Haemochrom Diagnostica GmbH, Essen, Germany).

human factor XIa = molecular target: T2, human factor XIa (Homo sapiens, UniProt P03951); assay: Inhibitory constants for factor XIa (substrate H-D-Lys(Z)-Pro-Arg-pNA, Chromozym PCa); details: read-out: Ki F XIa
T2 construct: purchased Haemochrom Diagnostica GmbH, Essen, Germany
T2 sequence (P03951 388-625 limits assumed): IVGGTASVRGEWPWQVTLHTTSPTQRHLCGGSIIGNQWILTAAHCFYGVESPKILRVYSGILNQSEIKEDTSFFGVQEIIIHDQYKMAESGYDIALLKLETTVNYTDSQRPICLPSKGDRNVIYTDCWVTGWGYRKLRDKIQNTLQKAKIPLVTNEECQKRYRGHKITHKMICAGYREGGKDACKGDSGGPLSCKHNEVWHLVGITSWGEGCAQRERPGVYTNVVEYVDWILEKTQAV
T2 sequence (P03951 19-387 partner limits assumed): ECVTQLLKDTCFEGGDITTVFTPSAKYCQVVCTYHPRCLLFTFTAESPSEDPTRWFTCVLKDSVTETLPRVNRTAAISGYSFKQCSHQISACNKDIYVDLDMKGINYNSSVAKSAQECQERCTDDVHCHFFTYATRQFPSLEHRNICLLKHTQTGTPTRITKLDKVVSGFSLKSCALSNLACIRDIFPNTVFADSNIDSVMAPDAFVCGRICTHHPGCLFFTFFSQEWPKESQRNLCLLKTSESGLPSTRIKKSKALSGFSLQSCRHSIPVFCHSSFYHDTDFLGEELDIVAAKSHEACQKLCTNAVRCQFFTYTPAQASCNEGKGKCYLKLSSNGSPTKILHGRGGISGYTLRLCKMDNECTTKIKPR
Procedure: as §1, §2, §3

plasma kallikrein (PK) = plasma kallikrein (PK) (Homo sapiens, UniProt P03952); assay: Determining the inhibitory constants: inhibition of PK (substrate Bzl-Pro-Phe-Arg-pNA); details: Tris buffer pH 8.0, 25° C.; mean of at least three determinations
plasma kallikrein (PK), sequence (P03952 391-638 limits assumed, species assumed): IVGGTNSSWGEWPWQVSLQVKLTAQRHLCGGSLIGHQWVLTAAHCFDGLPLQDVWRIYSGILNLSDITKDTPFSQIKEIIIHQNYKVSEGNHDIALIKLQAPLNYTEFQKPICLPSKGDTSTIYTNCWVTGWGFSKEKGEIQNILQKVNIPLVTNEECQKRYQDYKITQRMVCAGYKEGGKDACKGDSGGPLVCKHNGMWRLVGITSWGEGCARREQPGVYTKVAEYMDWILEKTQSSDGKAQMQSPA
plasma kallikrein (PK), sequence (P03952 20-390 partner limits assumed, species assumed): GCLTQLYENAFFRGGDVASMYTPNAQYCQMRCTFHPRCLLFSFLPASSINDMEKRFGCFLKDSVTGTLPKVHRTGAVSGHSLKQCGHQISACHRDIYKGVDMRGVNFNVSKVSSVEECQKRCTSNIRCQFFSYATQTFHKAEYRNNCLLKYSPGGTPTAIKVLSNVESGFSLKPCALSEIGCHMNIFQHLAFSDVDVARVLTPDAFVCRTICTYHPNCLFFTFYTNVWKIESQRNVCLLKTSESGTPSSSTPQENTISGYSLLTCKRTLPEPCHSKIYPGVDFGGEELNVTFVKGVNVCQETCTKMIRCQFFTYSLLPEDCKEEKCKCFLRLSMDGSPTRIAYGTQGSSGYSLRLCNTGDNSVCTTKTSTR
Procedure: as §1, §2

thrombin = thrombin (UniProt P00735); assay: Inhibitory constants for thrombin; details: read-out: Ki Thrombin

Row | Compound | Ki (human factor XIIa) [µM] | Ki (human factor XIa) [µM] | Ki (plasma kallikrein (PK)) [µM] | Ki (thrombin) [µM]
1 | CC(C)(C)OC[C@@H](NS(=O)(=O)Cc1ccccc1)C(=O)N1CCC[C@H]1C(=O)NCc1ccc(C(=N)N)cc1 [Inhibitor 28] | 0.49 | 0.036 | 0.0065 | 0.002
2 | CC(C)(C)OC[C@@H](NS(=O)(=O)Cc1ccccc1)C(=O)N[C@@H](CCC(N)=O)C(=O)NCc1ccc(C(=N)N)cc1 [Inhibitor 31] | 6.3 | 0.067 | 0.0092 | 0.021
3 | CC(C)(C)OC[C@@H](NS(=O)(=O)Cc1ccccc1)C(=O)N[C@@H](CN)C(=O)NCc1ccc(C(=N)N)cc1 [Inhibitor 33] | 4 | 0.19 | 0.022 | 0.0094
4 | CC(C)(C)OC[C@@H](NS(=O)(=O)Cc1ccccc1)C(=O)N[C@@H](CCCCN)C(=O)NCc1ccc(C(=N)N)cc1 [Inhibitor 35] | 4.4 | 0.51 | 0.0036 | 0.055
5 | CC(C)(C)OC[C@@H](NS(=O)(=O)Cc1ccccc1)C(=O)N[C@@H](CCCCNC(=O)OCc1ccccc1)C(=O)NCc1ccc(C(=N)N)cc1 [Inhibitor 36] | 5.4 | 0.48 | 0.0094 | 0.024
6 | CC(C)(C)OC[C@@H](NS(=O)(=O)Cc1ccccc1)C(=O)N[C@@H](CCCNC(=N)N)C(=O)NCc1ccc(C(=N)N)cc1 [Inhibitor 37] | 2.6 | 0.34 | 0.04 | 0.065
7 | CC(C)(C)OC[C@@H](NS(=O)(=O)Cc1ccccc1)C(=O)N[C@@H](CO)C(=O)NCc1ccc(C(=N)N)cc1 [Inhibitor 40] | 6 | 0.2 | 0.052 | 0.047
8 | CC(C)(C)OC[C@@H](NS(=O)(=O)Cc1ccccc1)C(=O)N[C@@H](COCc1ccccc1)C(=O)NCc1ccc(C(=N)N)cc1 [Inhibitor 41] | 1.4 | 0.2 | 0.012 | 0.012
9 | CC(C)(C)OC[C@@H](NS(=O)(=O)Cc1ccccc1)C(=O)N[C@@H](CO)CC(=O)NCc1ccc(C(=N)N)cc1 [Inhibitor 42] | > 1000 | 0.74 | 0.21 | 13
10 | CC(C)(C)OCC(NS(=O)(=O)Cc1ccccc1)C(=O)NC(CCOCc1ccccc1)C(=O)NCc1ccc(C(=N)N)cc1 (centres unmarked) [Inhibitor 43] | 80 | 0.61 | 0.0082 | 0.5
11 | CC(C)(C)OC[C@@H](NS(=O)(=O)Cc1ccccc1)C(=O)N[C@@H](CCc1ccccc1)C(=O)NCc1ccc(C(=N)N)cc1 [Inhibitor 45] | 1.3 | 0.083 | 0.0045 | 0.048
12 | COC(=O)c1ccc(CS(=O)(=O)N[C@H](COC(C)(C)C)C(=O)N[C@@H](C)C(=O)NCc2ccc(C(=N)N)cc2)cc1 [Inhibitor 49] | 4.7 | 0.079 | 0.054 | 0.0043
13 | CC(C)(C)OC[C@@H](NS(=O)(=O)Cc1ccc(CN)cc1)C(=O)NCC(=O)NCc1ccc(C(=N)N)cc1 [Inhibitor 50] | 1.8 | 2.9 | 4 | 0.12
14 | CC(C)(C)OC[C@@H](NS(=O)(=O)Cc1ccc(C#N)cc1)C(=O)N1CCC[C@H]1C(=O)NCc1ccc(C(=N)N)cc1 [Inhibitor 51] | 1.6 | 0.0091 | 0.0094 | 6.4e-05
15 | N=C(N)c1ccc(CNC(=O)[C@H](CCCCNC(=O)OCc2ccccc2)NC(=O)[C@@H](CC2CCCCC2)NS(=O)(=O)Cc2ccccc2)cc1 [Inhibitor 54] | 4 | 0.34 | 0.02 | 0.015
16 | N=C(N)c1ccc(CNC(=O)[C@@H]2CCCN2C(=O)[C@@H](CC2CCCCC2)NS(=O)(=O)Cc2cccc(CNC(=O)CCCC(=O)O)c2)cc1 [Inhibitor 56] | 5.6 | 0.052 | 0.044 | < 0.001
17 | N=C(N)c1ccc(CNC(=O)[C@H](CCC(=O)O)NC(=O)[C@@H](CC2CCCCC2)NS(=O)(=O)Cc2ccccc2)cc1 [Inhibitor 57] | 4 | 0.02 | 0.03 | 0.081
18 | N=C(N)c1ccc(CNC(=O)[C@@H]2CCCN2C(=O)[C@@H](CO)NS(=O)(=O)Cc2ccc(C(=O)O)cc2)cc1 [Inhibitor 61] | 29 | 0.014 | 0.0091 | 0.24
19 | N=C(N)c1ccc(CNC(=O)CNC(=O)[C@@H](CC2CCCCC2)NS(=O)(=O)Cc2ccccc2)cc1 [Inhibitor 63] | 0.7 | 25 | 0.011 | 0.009
20 | CC(C)(C)OC[C@@H](NS(=O)(=O)Cc1ccc(C(=O)O)cc1)C(=O)N[C@@H](CO)C(=O)NCc1ccc(C(=N)N)cc1 [Inhibitor 65] | 17 | 0.03 | 0.015 | 2
21 | N=C(N)c1ccc(CNC(=O)[C@H](CO)NC(=O)[C@@H](CCc2ccccc2)NS(=O)(=O)Cc2ccccc2)cc1 [Inhibitor 67] | 0.63 | 3 | 0.019 | 0.55
22 | N=C(N)c1ccc(CNC(=O)CNC(=O)[C@@H](CCc2ccccc2)NS(=O)(=O)Cc2ccc([N+](=O)[O-])cc2)cc1 [Inhibitor 74] | 0.39 | 0.093 | 0.051 | 0.71
23 | N=C(N)c1ccc(CNC(=O)CNC(=O)[C@@H](Cc2cccc(C(=N)N)c2)NS(=O)(=O)Cc2ccccc2)cc1 [Inhibitor 77] | 0.19 | 0.25 | 0.082 | 0.085

Next, values leading:

Row | Ki (human factor XIIa) [µM] | Ki (human factor XIa) [µM] | Ki (plasma kallikrein (PK)) [µM] | Ki (thrombin) [µM] | Compound
24 | 2.6 | 1.4 | 0.34 | 0.22 | CC(C)(C)OC[C@@H](NS(=O)(=O)Cc1ccccc1)C(=O)NCC(=O)NCc1ccc(C(=N)N)cc1 [Inhibitor 26]
25 | 2 | 0.03 | 0.061 | 0.0021 | C[C@H](NC(=O)[C@@H](COC(C)(C)C)NS(=O)(=O)Cc1ccccc1)C(=O)NCc1ccc(C(=N)N)cc1 [Inhibitor 27]
26 | > 1000 | 0.39 | 0.91 | 6 | CC(C)(C)OC[C@@H](NS(=O)(=O)Cc1ccccc1)C(=O)N[C@@H](CC(=O)O)C(=O)NCc1ccc(C(=N)N)cc1 [Inhibitor 29]
27 | 19 | 0.079 | 0.36 | 2.6 | CC(C)(C)OC[C@@H](NS(=O)(=O)Cc1ccccc1)C(=O)N[C@@H](CCC(=O)O)C(=O)NCc1ccc(C(=N)N)cc1 [Inhibitor 30]
28 | > 1000 | 8.2 | 8 | > 1000 | CC(C)(C)OC[C@@H](NS(=O)(=O)Cc1ccccc1)C(=O)NC(CC(=O)O)CC(=O)NCc1ccc(C(=N)N)cc1 (some centres unmarked) [Inhibitor 32]
29 | 0.93 | 0.31 | 0.025 | 0.37 | CC(C)(C)OC[C@@H](NS(=O)(=O)Cc1ccccc1)C(=O)N[C@@H](CNC(=O)OCc1ccccc1)C(=O)NCc1ccc(C(=N)N)cc1 [Inhibitor 34]
30 | 17 | 0.4 | 0.044 | 0.019 | C[C@@H](OCc1ccccc1)[C@H](NC(=O)[C@@H](COC(C)(C)C)NS(=O)(=O)Cc1ccccc1)C(=O)NCc1ccc(C(=N)N)cc1 [Inhibitor 39]
31 | 4.6 | 0.26 | 0.0055 | 0.16 | CC(C)(C)OC[C@@H](NS(=O)(=O)Cc1ccccc1)C(=O)N[C@@H](Cc1ccccc1)C(=O)NCc1ccc(C(=N)N)cc1 [Inhibitor 44]
32 | 4.8 | 1.6 | 1.1 | 0.36 | COC(=O)c1ccc(CS(=O)(=O)N[C@H](COC(C)(C)C)C(=O)NCC(=O)NCc2ccc(C(=N)N)cc2)cc1 [Inhibitor 47]
33 | 9.5 | 0.0069 | 0.0062 | 0.044 | C[C@H](NC(=O)[C@@H](COC(C)(C)C)NS(=O)(=O)Cc1ccc(C(=O)O)cc1)C(=O)NCc1ccc(C(=N)N)cc1 [Inhibitor 48]
34 | 0.83 | 0.15 | 0.0023 | 0.01 | N=C(N)c1ccc(CNC(=O)[C@H](CCCCN)NC(=O)[C@@H](CC2CCCCC2)NS(=O)(=O)Cc2ccccc2)cc1 [Inhibitor 53]
35 | 0.47 | 0.17 | 0.09 | 0.0032 | N=C(N)c1ccc(CNC(=O)[C@@H]2CCCN2C(=O)[C@@H](CC2CCCCC2)NS(=O)(=O)Cc2cccc(CN)c2)cc1 [Inhibitor 55]
36 | 2 | 0.23 | 0.059 | 0.008 | N=C(N)c1ccc(CNC(=O)[C@H](CCCCNC(=O)COCC(=O)NCCOCCOCCOCCOCCOCCOCCOCCN)NC(=O)[C@@H](CC2CCCCC2)NS(=O)(=O)Cc2ccccc2)cc1 [Inhibitor 58]
37 | 0.98 | 0.04 | 0.015 | 0.015 | N=C(N)c1ccc(CNC(=O)[C@H](CCC(=O)NCCCOCCOCCOCCCN)NC(=O)[C@@H](CC2CCCCC2)NS(=O)(=O)Cc2ccccc2)cc1 [Inhibitor 59]
38 | 0.094 | 0.031 | 0.0055 | 0.17 | N=C(N)c1ccc(CNC(=O)[C@H](CCC(=O)OCc2ccccc2)NC(=O)[C@@H](CCc2ccncc2)NS(=O)(=O)Cc2ccccc2)cc1 [Inhibitor 60]
